Results from US20090036514A1, “Therapeutic effects of Bryostatins, Bryologs, and other related substances on Ischemia/stroke-induced memory impairment and brain injury” (priority 2007, published 2009).
Where two headings read alike, the source gives them in different places.

Assays:
[1] = system: cerebral ischemia-induced memory impairment; experiment: water maze spatial learning and probe test after global ischemia (Example 2); type: in vivo, rat; settings: for water maze spatial learning, ischemic with treatment vs. control rats: trained one week after last dose; for water maze spatial learning, ischemic with treatment vs. ischemic rats: treatment started 24 hours after hypoxia, bryostatin-1 20 μg/m^2 i.v. 2 doses/week 10 doses, MCDA 1.0 mg/kg i.p. daily 5 weeks
Procedure: Rats (male, Wistar, 200-225 g) were randomly divided into 6 groups (8 each) and housed for 1 week before experimentation. Transient or permanent restriction of cerebral blood flow and oxygen supply results in ischemic stroke. The global ischemia model used to induce vascular memory impairment was two-vessel occlusion combined with a short term systemic hypoxia. Ligation of the bilateral common carotid arteries was performed under anesthesia (pentobarbital, 60 mg/kg, i.p.). After a one-week recovery from the surgery, rats were exposed to 14-min hypoxia (5% oxygen in a glass jar). Control rats (sham operated and vehicle controls) were subjected to the same incision to isolate both common carotid arteries and to 14-min air (in the glass jar). Body temperature was kept at 37-37.5° C. using a heating light source during the surgical procedure and until the animals were fully recovered.
4-Methylcatechol-diacetic acid (MCDA, a potential NGF and BDNF booster) was administered at 1.0 mg/kg (i.p., daily for the same 5-week period) in separate groups of rats.
A visible platform test was given after the probe test.

[2] = humans; cited from earlier work
[3] = system: cerebral ischemia/hypoxia-induced learning and memory impairment; experiment: water maze spatial learning and memory after global cerebral ischemia/hypoxia (Example 3); type: in vivo, rat
Procedure: Global cerebral ischemia/hypoxia was induced in male Wistar rats (225-250 g) by permanently occluding the bilateral common carotid arteries, combined with about 14 minutes of low oxygen (about 5%). […] Spatial learning (2 trials/ day for 4 days) and memory (a probe test of 1 minute, 24 hours after the last trial) task was performed 9 days after the last dose. Overall, there was a significant difference between the groups (F3,255=31.856, p<0.001) and groups x trials (F21,255=1.648, p<0.05). Global cerebral ischemia impaired the spatial learning (ischemial vs. sham-operated F1,127=[…]).

PKCε = target: T1, PKCε (Homo sapiens, UniProt Q02156); settings: cited from earlier work
T1 sequence (Q02156 1-737): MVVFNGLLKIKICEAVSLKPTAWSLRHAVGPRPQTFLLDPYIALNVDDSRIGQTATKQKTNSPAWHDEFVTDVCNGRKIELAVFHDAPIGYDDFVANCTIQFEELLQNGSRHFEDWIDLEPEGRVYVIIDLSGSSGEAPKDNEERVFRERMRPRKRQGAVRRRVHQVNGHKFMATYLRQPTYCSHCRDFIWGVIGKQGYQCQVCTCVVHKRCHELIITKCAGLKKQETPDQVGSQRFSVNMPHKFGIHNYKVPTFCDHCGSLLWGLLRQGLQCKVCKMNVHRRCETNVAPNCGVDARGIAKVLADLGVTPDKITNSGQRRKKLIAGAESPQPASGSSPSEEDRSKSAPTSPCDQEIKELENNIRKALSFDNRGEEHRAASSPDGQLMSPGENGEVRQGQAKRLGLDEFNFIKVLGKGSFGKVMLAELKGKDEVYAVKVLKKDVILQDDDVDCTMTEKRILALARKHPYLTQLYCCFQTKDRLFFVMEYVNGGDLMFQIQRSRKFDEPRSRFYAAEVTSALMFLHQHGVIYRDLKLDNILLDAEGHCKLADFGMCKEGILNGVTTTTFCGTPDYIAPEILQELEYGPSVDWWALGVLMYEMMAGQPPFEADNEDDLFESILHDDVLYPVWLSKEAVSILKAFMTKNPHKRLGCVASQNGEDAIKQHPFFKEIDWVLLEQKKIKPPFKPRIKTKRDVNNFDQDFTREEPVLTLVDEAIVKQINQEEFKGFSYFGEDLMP

[4] = system: cyclin dependent kinase 2 (Cdk2); settings: at 5 ng/ml; cited from earlier work
[5] = system: murine leukemias and solid tumors; settings: cited from earlier work
PKC [6] = settings: K562 cells; cited from earlier work
PKC [7] = settings: [3H]phorbol dibutyrate; read-out: Ki for binding; cited from earlier work
[8] = system: squamous cell carcinoma and melanoma; settings: used topically; cited from earlier work
NCI 60 cell line screen = settings: cited from earlier work
protein kinase C = settings: (−)-enantiomer; cited from earlier work
PKC [9] = settings: A-ring bryologs; read-out: affinity for PKC; cited from earlier work
[10] = non-ischemic rats, same regimens

Compound: CCCC=CC=CC(=O)OC1C(=CC(=O)OC)CC2CC(C(C)O)OC(=O)CC(O)CC3CC(OC(C)=O)C(C)(C)C(O)(CC4CC(=CC(=O)OC)CC(C=CC(C)(C)C1(O)O2)O4)O3 (stereo not shown) [Bryostatin 1, bryostatin-1]
- water maze spatial learning, compound-only vs. control rats [1, 10]: no differences
- water maze spatial learning, ischemic with treatment vs. control rats ([1]; same regimens): did not differ statistically from the control rats
- water maze spatial learning, ischemic with treatment vs. ischemic rats [1]: greatly improved the performance
- main adverse reaction [2]: myalgia
- target quadrant preference, Bryostatin-1 alone vs. sham-operated ([3]; 15 μg/m^2): no significant effects
- spatial learning, Bryostatin-1 alone vs. sham-operated ([3]; 15 μg/m^2, 9 days after the last dose): did not affect the learning
- memory retention test after ischemia ([3]; 15 μg/m^2, probe test 24 hours after last trial): effectively restored memory retention after ischemia to the level of the sham-operated rats
- spatial learning impairment, Bryostatin-1+Ischemia vs. Ischemia ([3]; 15 μg/m^2 tail vein, 2 doses/week, 10 doses, from about 24 hours after ischemia, tested 9 days after last dose): restored

Compound: CCCCCC1CC1CC1CC1CCCCCCCC(=O)O (stereo not shown) [DCP-LA, 2-[(2-pentylcyclopropyl)methyl] cyclopropaneoctanoic acid]
- concentration of maximal effect on PKCε activation (PKCε): 100 nM

Compound: C=C(C)C12C[C@@H](COC(=O)c3ccccc3)[C@@]34OC5(O[C@@H]1[C@@H]3C1O[C@]1(CO)[C@@H](O)[C@@]1(O)[C@H]4[C@@H](C(C)CCCCCC[C@H]5O)C(C)[C@@H]1OC(=O)c1ccccc1)O2 (stereo partly shown) [Gnidimacrin]
- inhibition of Cdk2 [4]: 100%
- concentrations with potent antitumor activity [5]: 0.1 to 1 nM
- concentration acting as PKC activator (PKC [6]): ≈ 3 nM

Compound: CC1=C[C@]23C(=O)[C@@H](C=C(COC(=O)c4ccccc4)[C@@H](O)[C@]2(O)[C@H]1OC(=O)c1ccccc1)[C@H]1[C@@H](C[C@H]3C)C1(C)C [Ingenol 3,20-dibenzoate]
- Ki (PKC [7]): 240 nM

Compound: C/C=C(/C)C(=O)O[C@H]1C(C)=C[C@]23C(=O)[C@@H](C=C(CO)[C@@H](O)[C@]12O)[C@H]1[C@@H](C[C@H]3C)C1(C)C [Ingenol-3-angelate]
- antitumor activity [8]: possesses antitumor activity

Compound: CC1=CC[C@H](C)C(C)(C)[C@@H]1/C=C/C(C)=C/CC[C@@]1(CO)[C@H](CCCO)/C(=C(/C)C=O)CC[C@]1(C)O [Iripallidal]
- GI50 (concentration required to inhibit growth by 50%) (NCI 60 cell line screen): from micromolar to nanomolar range

Compound: Cc1ccc(OCC(=O)O)c(OCC(=O)O)c1 [MCDA, 4-Methylcatechol-diacetic acid]
- target quadrant ratio in probe test, compound-only vs. control rats [1, 10]: no differences
- water maze spatial learning, compound-only vs. control rats [1, 10]: no differences
- target quadrant ratio in probe test, ischemic with treatment vs. control rats ([1]; same regimens): no differences
- target quadrant ratio in probe test, ischemic with treatment vs. ischemic rats ([1]; same regimens): group differences
- water maze spatial learning, ischemic with treatment vs. control rats ([1]; same regimens): remained significant
- water maze spatial learning, ischemic with treatment vs. ischemic rats [1]: improved the learning of the ischemic rats

Compound: CCCCCCCCc1ccc2c3c(c[nH]c13)C[C@@H](CO)NC(=O)[C@H](C(C)C)N2C [Octylindolactam V]
- EC50 (protein kinase C): 29 nM

Compound: CCCCCCCC(=O)OC1C(=CC(=O)OC)CC2CC(CO)OC(=O)CC(O)CCOC(C(C)(C)C)CC3CCOC(C=CC(C)(C)C1(O)O2)O3 (stereo not shown) [bryolog 3]
- Ki (PKC [9]): 6.5 nM

Compound: CCCCCCCC(=O)OC1C(=CC(=O)OC)CC2CC(CO)OC(=O)CC(O)CCOC(c3ccccc3)CC3CCOC(C=CC(C)(C)C1(O)O2)O3 (stereo not shown) [bryolog 4]
- Ki (PKC [9]): 2.3 nM

Compound: CCCCCCCC(=O)OC1C(=CC(=O)OC)CC2CC(CO)OC(=O)CC(O)CCOC(CCCc3ccc(Br)cc3)CC3CCOC(C=CC(C)(C)C1(O)O2)O3 (stereo not shown) [bryolog 5]
- Ki (PKC [9]): 1.9 nM
